# Laboratory results published in PubChem BioAssay (NCI).
# “And” between values parts separate entries of the source, which are not always exact repeats. Equal entries are not always repeated.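 Each compound was tested at five concentrations against cells in 96-well plates for 48 hours. GI50 is the concentration that inhibits growth by half. At the TGI there is no net growth.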
# What was measured:
# Test in all cases: NCI anticancer screen, dose series, 48 h
# [1] = test system: CCRF-CEM leukemia
# [2] = test system: HS 578T breast
# [3] = test system: LOX IMVI melanoma
# [4] = test system: MOLT-4 leukemia
# [5] = test system: NCI-H23 lung
# [6] = test system: NCI-H522 lung
# [7] = test system: RXF 393 renal
# [8] = test system: SK-MEL-28 melanoma
# [9] = test system: SN12C renal
# [10] = test system: SR leukemia
SMILES,GI50 [1],TGI [1],GI50 [2] [µM],TGI [2],GI50 [3] [µM],TGI [3],GI50 [4] [µM],TGI [4],GI50 [5],TGI [5],GI50 [6],TGI [6],GI50 [7],TGI [7],GI50 [8] [µM],TGI [8],GI50 [9] [µM],TGI [9],GI50 [10] [µM],TGI [10] [µM]
C=C1C(=O)O[C@H]2[C@H]1CC/C(COC(=O)NCc1c[nH]c3ccc(Cl)cc13)=C\CC[C@@]1(C)O[C@@H]21,0.341 µM,1.88 µM,2.45,6.82 µM,0.633,2.03 µM,1.34,4.91 µM,1.71 µM,3.39 µM,0.527 µM,2.05 µM,1.37 µM,2.76 µM,1.69,3.29 µM,1.37,3 µM,0.357,3.88
CCn1cnc2c(Nc3cccc(Cl)c3)nc(N[C@@H]3CCCC[C@@H]3N)nc21,2.88 µM,9.66 µM,2.36,7.99 µM,1.24,2.57 µM,2.24,7.27 µM,1.38 µM,3.59 µM,1.64 µM,3.8 µM,1.35 µM,2.89 µM,1.68,3.42 µM,2.08,7.62 µM,0.699,3.94
COc1ccc([N+](=O)[O-])c(S(=O)(=O)c2ccc(Cl)cc2)n1,2.93 µM,13.8 µM,13,51.1 µM,1.98,4.19 µM,3.59,> 100 µM,4.58 µM,29.2 µM,1.86 µM,3.77 µM,4.45 µM,16.2 µM,3.57,14.2 µM,3.82,16.8 µM,3,> 100
NC1=N/C(=C2/CCNC(=O)c3[nH]c(Br)cc32)C(=O)N1,–,> 100 µM,–,> 91.2 µM,–,> 62.1 µM,–,> 52.6 µM,–,> 100 µM,7.44 µM and 2.54 µM,32.5 µM and 17.4 µM,–,> 100 µM,–,> 100 µM,–,> 100 µM,–,2.25
CO[C@@H]1[C@H](OC(=O)NC(=O)CCl)CC[C@]2(CO2)[C@H]1[C@@]1(C)O[C@@H]1CC=C(C)C,1.98 µM and 5.49 µM,18 µM and 28.4 µM,–,63.7 µM and 157 µM,2.76,25.2 µM and 34.6 µM,3.31,28.2 µM and 8.2 µM,2.99 µM and 5.94 µM,37 µM and 30.8 µM,1.23 µM and 7.41 µM,3.99 µM and 16.8 µM and 33.8 µM,4.08 µM and 23.7 µM,27.9 µM and 131 µM,18.9,32.8 µM and 47.9 µM,3.27,31.3 µM and 25.7 µM,6.76,39.4
COc1cc(C(=O)c2cc3c(cc2C)OCO3)cc(OC)c1OC,0.0434 µM,> 100 µM,0.174,> 100 µM,0.551,> 100 µM,0.117,> 100 µM,0.319 µM,> 100 µM,0.26 µM,3.9 µM,0.0515 µM,> 100 µM,0.0879,> 100 µM,0.289,> 100 µM,0.0417,> 100
NS(=O)(=O)c1ccc(N2N=C3c4ccccc4CC3C2c2ccc(Cl)cc2)cc1 (centres undefined),6.48 µM,42.4 µM,4.61,19.2 µM,18,36.5 µM,7.58,> 100 µM,11.4 µM,34.8 µM,8.44 µM,28.6 µM,5.07 µM,19.7 µM,10,28.7 µM,6.75,25.6 µM,2.19,> 100
CSc1nc2sc3cc(Cl)ccc3n2c(=N)c1C#N,–,> 100 µM,2.89,> 24.9 µM,> 74.4,> 100 µM,2.2,> 23.6 µM,> 52 µM,> 100 µM,62.7 µM,> 100 µM,19.2 µM,> 100 µM,11.6,> 100 µM,> 100,> 100 µM,17.6,> 100
